Measurements reported in patent publication US9520611B2, “Redox flow battery” (SAMSUNG ELECTRONICS CO., LTD., priority 2013, dated 2016).
Where two headings read alike, the source gives them in different places.

Key:
[1] = Cyclic voltammetry of organic electrolytic solution; type: physicochemical; settings: unit inferred; Ag/Ag+ reference electrode (0.3 M AgNO3 in acetonitrile), carbon felt working electrode
Text: For the purpose of measurement of cyclic voltammetry, a cell that includes an Ag/Ag^+ electrode prepared by dissolving 0.3 M AgNO3 in an acetonitrile solvent as a reference electrode, a carbon felt as a working electrode, and platinum as a counter electrode was used.
Referring to FIGS. 2A to 2C, the graphs of an electrolyte including a metal-ligand coordination compound show a reversible oxidation/reduction peak.

[2] = Solubility measurement in a non-aqueous polar solvent; type: physicochemical
Description: A density of the solution was measured and calculated in a molar concentration.

[3] = in 50 mL acetonitrile and propylene carbonate 1:1, calculated in a molar concentration, unit not given

Compound: O=S(=O)([N-]S(=O)(=O)C(F)(F)F)C(F)(F)F.O=S(=O)([N-]S(=O)(=O)C(F)(F)F)C(F)(F)F.[Fe+2].c1ccc(-c2ccccn2)nc1.c1ccc(-c2ccccn2)nc1.c1ccc(-c2ccccn2)nc1 [Preparation Example 4, Fe^2+-(bpy)3 [TFSI]2]
- E^0 [1]: 0.68 V

Compound: O=S(=O)([N-]S(=O)(=O)C(F)(F)F)C(F)(F)F.O=S(=O)([N-]S(=O)(=O)C(F)(F)F)C(F)(F)F.O=[N+]([O-])c1cc2cccnc2c2ncccc12.[Fe+2].c1ccc(-c2ccccn2)nc1.c1ccc(-c2ccccn2)nc1 [Preparation Example 2, Fe^2+-(5-NO2-phenanthroline)(bpy)2 [TFSI]2]
- E^0 [1]: 0.72 V

Compound: Cc1ccnc(-c2cc(C)ccn2)c1.Cc1ccnc(-c2cc(C)ccn2)c1.Cc1ccnc(-c2cc(C)ccn2)c1.O=S(=O)([N-]S(=O)(=O)C(F)(F)F)C(F)(F)F.O=S(=O)([N-]S(=O)(=O)C(F)(F)F)C(F)(F)F.[Fe+2] [Preparation Example 5, Fe^2+-(4,4′-diMe-bpy)3 [TFSI]2]
- E^0 [1]: 0.43 V
- Solubility [2]: 0.65

Compound: Cc1ccnc(-c2cc(C)ccn2)c1.Cc1ccnc(-c2cc(C)ccn2)c1.O=S(=O)([N-]S(=O)(=O)C(F)(F)F)C(F)(F)F.O=S(=O)([N-]S(=O)(=O)C(F)(F)F)C(F)(F)F.[Fe+2].c1ccc(-c2ccccn2)nc1 [Preparation Example 1, Fe^2+-(4,4′-diMebpy)2 (bpy) [TFSI]2]
- E^0 [1]: 0.56 V

Compound: Clc1cc(-c2ccccn2)nc(-c2ccccn2)c1.O=S(=O)([N-]S(=O)(=O)C(F)(F)F)C(F)(F)F.O=S(=O)([N-]S(=O)(=O)C(F)(F)F)C(F)(F)F.[Fe+2].c1ccc(-c2cccc(-c3ccccn3)n2)nc1 [Preparation Example 3, Fe^2+-(terpy)(4′-chloro-terpy) [TFSI]2]
- E^0 [1]: 0.72 V
- Solubility [2]: 1.33
- Solubility compared with the compounds that include identical ligands (dipole moment sum 0) [2]: higher solubility

Compound: Clc1cc(-c2ccccn2)nc(-c2ccccn2)c1.Clc1cc(-c2ccccn2)nc(-c2ccccn2)c1.O=S(=O)([N-]S(=O)(=O)C(F)(F)F)C(F)(F)F.O=S(=O)([N-]S(=O)(=O)C(F)(F)F)C(F)(F)F.[Fe+2] [Preparation Example 8, Fe^2+-(4′-chloro-terpy)2 [TFSI]2]
- E^0 [1]: 0.78 V
- Solubility [2, 3]: 0.75

Compound: Fe^2+-(NO2-phenanthroline)3 [TFSI]2 [Preparation Example 6]
- E^0 [1]: 0.88 V
- Solubility [2]: 1020 mM

Compound: O=S(=O)([N-]S(=O)(=O)C(F)(F)F)C(F)(F)F.O=S(=O)([N-]S(=O)(=O)C(F)(F)F)C(F)(F)F.[Fe+2].c1ccc(-c2cccc(-c3ccccn3)n2)nc1.c1ccc(-c2cccc(-c3ccccn3)n2)nc1 [Preparation Example 7, Fe^2+-(terpy)2 [TFSI]2]
- E^0 [1]: 0.7 V
- Solubility [2, 3]: 1.20
